Laboratory results taken from patent US12459922B2 (Gilead Sciences, Inc., priority 2022, dated 2025).

Tested on: endogenous cellular STAT1 (phosphorylated at Tyr701) in NCI-H1373 cells
Test: Phospho-STAT1 (Tyr701) LANCE Ultra TR-FRET Detection Assay
Type: cell-based
Settings: Homo sapiens, NCI-H1373, 48 h, phospho-STAT1 (Tyr701) induction, read-out: NH1373 pSTAT1 EC50

| SMILES | EC50 [µM] |
| --- | --- |
| O=c1[nH]ncc(N[C@H]2CCC[C@@H](Cn3c(=O)[nH]c4cc(-c5ncc(C(F)(F)F)cn5)c(F)cc4c3=O)C2)c1C(F)(F)F [Example 281, 6-fluoro-3-(((1R,3S)-3-((6-oxo-5-(trifluoromethyl)-1,6-dihydropyridazin-4-yl)amino)cyclohexyl)methyl)-7-(5-(trifluoromethyl)pyrimidin-2-yl)quinazoline-2,4(1H,3H)-dione] | 0.00287 |
| CC(C)(O)c1ccc(-c2cc3ccn(C[C@@H]4CCC[C@H](Nc5cn[nH]c(=O)c5C(F)(F)F)C4)c(=O)c3cc2F)nc1 [Example 283, 7-fluoro-6-(5-(2-hydroxypropan-2-yl)pyridin-2-yl)-2-(((1R,3S)-3-((6-oxo-5-(trifluoromethyl)-1,6-dihydropyridazin-4-yl)amino)cyclohexyl)methyl)isoquinolin-1(2H)-one] | 0.113 |
| CC(C)(O)c1cnc(-c2cc3ccn(C[C@@H]4CCC[C@H](Nc5cn[nH]c(=O)c5C(F)(F)F)C4)c(=O)c3cc2F)nc1 [Example 284, 7-fluoro-6-(5-(2-hydroxypropan-2-yl)pyrimidin-2-yl)-2-(((1R,3S)-3-((6-oxo-5-(trifluoromethyl)-1,6-dihydropyridazin-4-yl)amino)cyclohexyl)methyl)isoquinolin-1(2H)-one] | 0.0517 |
| COc1cnc(-c2cc3ccn(CCC[C@H](C)Nc4cn[nH]c(=O)c4C(F)(F)F)c(=O)c3cc2F)nc1N1CC(O)(C(F)(F)F)C1 [Example 286, (S)-7-fluoro-6-(4-(3-hydroxy-3-(trifluoromethyl)azetidin-1-yl)-5-methoxypyrimidin-2-yl)-2-(4-((6-oxo-5-(trifluoromethyl)-1,6-dihydropyridazin-4-yl)amino)pentyl)isoquinolin-1(2H)-one] | 0.0619 |
| COc1cnc(-c2cc3ncn(CCC[C@H](C)Nc4cn[nH]c(=O)c4C(F)(F)F)c(=O)c3cc2F)nc1N1CC(O)(C(F)(F)F)C1 [Example 287, (S)-6-fluoro-7-(4-(3-hydroxy-3-(trifluoromethyl)azetidin-1-yl)-5-methoxypyrimidin-2-yl)-3-(4-((6-oxo-5-(trifluoromethyl)-1,6-dihydropyridazin-4-yl)amino)pentyl)quinazolin-4(3H)-one] | 0.137 |
| C[C@@H]1[C@H](O)CN1c1nc(-c2cc3ncn(CCC[C@H](C)Nc4cn[nH]c(=O)c4C(F)(F)F)c(=O)c3cc2F)ncc1C(F)(F)F [Example 288, 6-fluoro-7-(4-((2R,3R)-3-hydroxy-2-methylazetidin-1-yl)-5-(trifluoromethyl)pyrimidin-2-yl)-3-((S)-4-((6-oxo-5-(trifluoromethyl)-1,6-dihydropyridazin-4-yl)amino)pentyl)quinazolin-4(3H)-one] | 0.0105 |
| C[C@@H](CCCn1ccc2cc(-c3ncc(C(F)(F)F)cc3C#N)c(F)cc2c1=O)Nc1cn[nH]c(=O)c1C(F)(F)F [Example 289, (S)-2-(7-fluoro-1-oxo-2-(4-((6-oxo-5-(trifluoromethyl)-1,6-dihydropyridazin-4-yl)amino)pentyl)-1,2-dihydroisoquinolin-6-yl)-5-(trifluoromethyl)nicotinonitrile] | 0.108 |
| C[C@@H](CCCn1ccc2cc(-c3nc(N)c(C(F)(F)F)cc3C#N)c(F)cc2c1=O)Nc1cn[nH]c(=O)c1C(F)(F)F [Example 290, (S)-6-amino-2-(7-fluoro-1-oxo-2-(4-((6-oxo-5-(trifluoromethyl)-1,6-dihydropyridazin-4-yl)amino)pentyl)-1,2-dihydroisoquinolin-6-yl)-5-(trifluoromethyl)nicotinonitrile] | 0.0213 |
| C[C@@H](CCCn1ccc2cc(-c3nc(N)ccc3C#N)c(F)cc2c1=O)Nc1cn[nH]c(=O)c1C(F)(F)F [Example 291, (S)-6-amino-2-(7-fluoro-1-oxo-2-(4-((6-oxo-5-(trifluoromethyl)-1,6-dihydropyridazin-4-yl)amino)pentyl)-1,2-dihydroisoquinolin-6-yl)nicotinonitrile] | 0.709 |
| C[C@@H](CCCn1ccc2cc(-c3ncc4ccsc4n3)c(F)cc2c1=O)Nc1cn[nH]c(=O)c1C(F)(F)F [Example 292, (S)-7-fluoro-2-(4-((6-oxo-5-(trifluoromethyl)-1,6-dihydropyridazin-4-yl)amino)pentyl)-6-(thieno[2,3-d]pyrimidin-2-yl)isoquinolin-1(2H)-one] | 0.016 |
| C[C@@H](CCCn1cnc2cc(-c3ccc(Cl)c(N)n3)c(F)cc2c1=O)Nc1cn[nH]c(=O)c1C(F)(F)F [Example 294, (S)-7-(6-amino-5-chloropyridin-2-yl)-6-fluoro-3-(4-((6-oxo-5-(trifluoromethyl)-1,6-dihydropyridazin-4-yl)amino)pentyl)quinazolin-4(3H)-one] | 0.0288 |
| Cc1ccc(-c2cc3ccn(CCC[C@H](C)Nc4cn[nH]c(=O)c4C(F)(F)F)c(=O)c3cc2F)nc1C(F)(F)F [Example 296, (S)-7-fluoro-6-(5-methyl-6-(trifluoromethyl)pyridin-2-yl)-2-(4-((6-oxo-5-(trifluoromethyl)-1,6-dihydropyridazin-4-yl)amino)pentyl)isoquinolin-1(2H)-one] | 1.46 |

The remaining lines, values ahead:

| EC50 [µM] | SMILES |
| --- | --- |
| 0.0155 | O=c1[nH]ncc(N[C@H]2CCC[C@@H](Cn3ccc4cc(-c5ccc(C(F)(F)CO)cn5)c(F)cc4c3=O)C2)c1C(F)(F)F [Example 279, 6-(5-(1,1-difluoro-2-hydroxyethyl)pyridin-2-yl)-7-fluoro-2-(((1R,3S)-3-((6-oxo-5-(trifluoromethyl)-1,6-dihydropyridazin-4-yl)amino)cyclohexyl)methyl)isoquinolin-1(2H)-one] |
| 0.0348 | O=c1[nH]ncc(N[C@H]2CCC[C@@H](Cn3ccc4cc(-c5ccc(Cl)cn5)c(F)cc4c3=O)C2)c1C(F)(F)F [Example 280, 6-(5-chloropyridin-2-yl)-7-fluoro-2-(((1R,3S)-3-((6-oxo-5-(trifluoromethyl)-1,6-dihydropyridazin-4-yl)amino)cyclohexyl)methyl)isoquinolin-1(2H)-one] |
| 0.0801 | Nc1nc(-c2cc3ccn(C[C@@H]4CCC[C@H](Nc5cn[nH]c(=O)c5C(F)(F)F)C4)c(=O)c3cc2F)nc(C2CC2)c1Cl [Example 282, 6-(4-amino-5-chloro-6-cyclopropylpyrimidin-2-yl)-7-fluoro-2-(((1R,3S)-3-((6-oxo-5-(trifluoromethyl)-1,6-dihydropyridazin-4-yl)amino)cyclohexyl)methyl)isoquinolin-1(2H)-one] |
| 0.0787 | O=c1[nH]ncc(N[C@H]2CCC[C@@H](Cn3ccc4cc(-c5ncc(C(F)(F)F)cn5)cc(F)c4c3=O)C2)c1C(F)(F)F [Example 285, 8-fluoro-2-(((1R,3S)-3-((6-oxo-5-(trifluoromethyl)-1,6-dihydropyridazin-4-yl)amino)cyclohexyl)methyl)-6-(5-(trifluoromethyl)pyrimidin-2-yl)isoquinolin-1(2H)-one] |
| 0.00528 | C[C@@H](CCCn1ccc2cc(-c3ccc(Cl)c(N)n3)c(F)cc2c1=O)Nc1cn[nH]c(=O)c1C(F)(F)F [Example 293, (S)-6-(6-amino-5-chloropyridin-2-yl)-7-fluoro-2-(4-((6-oxo-5-(trifluoromethyl)-1,6-dihydropyridazin-4-yl)amino)pentyl)isoquinolin-1(2H)-one] |
| 2.02 | C[C@@H](CCCn1ccc2cc(-c3ccc(C#N)c(C(F)(F)F)n3)c(F)cc2c1=O)Nc1cn[nH]c(=O)c1C(F)(F)F [Example 295, (S)-6-(7-fluoro-1-oxo-2-(4-((6-oxo-5-(trifluoromethyl)-1,6-dihydropyridazin-4-yl)amino)pentyl)-1,2-dihydroisoquinolin-6-yl)-2-(trifluoromethyl)nicotinonitrile] |
